Measured values as given in ChEMBL document CHEMBL1201862, “PubChem BioAssay data set” (2004).
Calls of active or inactive are those of the source.

How the values were obtained:
[1] = biological target: T1, Voltage-gated N-type calcium channel alpha-1B subunit/Amyloid beta A4 precursor protein-binding family A member 1 (Homo sapiens, UniProt Q00975+Q02410); assay type: protein assay
Protein RecA = biological target: T2, Protein RecA (Mycobacterium tuberculosis, UniProt P9WHJ3); experiment: Fluorescence Cell-Free Homogeneous Dose Retest to Identify Inhibitors of RecA-Intein Splicing Activity. [Related pubchem assays (depositor defined):AID2097, AID2223, AID489010, AID492950]; assay type: functional
T2 sequence (P9WHJ3 whole entry): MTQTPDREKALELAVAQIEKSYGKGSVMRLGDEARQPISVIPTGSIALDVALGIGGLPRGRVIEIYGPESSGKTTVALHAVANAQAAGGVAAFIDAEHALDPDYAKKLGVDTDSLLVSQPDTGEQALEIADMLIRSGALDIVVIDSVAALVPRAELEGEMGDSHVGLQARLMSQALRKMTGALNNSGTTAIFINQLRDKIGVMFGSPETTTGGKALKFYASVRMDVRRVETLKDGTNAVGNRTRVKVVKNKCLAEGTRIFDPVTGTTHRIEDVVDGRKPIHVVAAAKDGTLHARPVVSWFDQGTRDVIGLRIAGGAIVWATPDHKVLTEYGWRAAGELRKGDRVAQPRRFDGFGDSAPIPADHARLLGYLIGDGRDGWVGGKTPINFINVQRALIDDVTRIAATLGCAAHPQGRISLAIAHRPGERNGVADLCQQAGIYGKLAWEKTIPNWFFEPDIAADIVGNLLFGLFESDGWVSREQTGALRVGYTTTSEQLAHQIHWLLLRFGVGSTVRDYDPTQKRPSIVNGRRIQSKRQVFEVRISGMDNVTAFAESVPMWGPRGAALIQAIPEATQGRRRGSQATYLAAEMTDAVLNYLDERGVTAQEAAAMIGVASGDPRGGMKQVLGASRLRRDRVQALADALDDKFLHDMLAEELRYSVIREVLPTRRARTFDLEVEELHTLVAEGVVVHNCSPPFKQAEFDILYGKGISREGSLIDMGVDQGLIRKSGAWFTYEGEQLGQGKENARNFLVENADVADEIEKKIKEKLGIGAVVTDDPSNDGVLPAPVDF

[2] = biological target: T1, Voltage-gated N-type calcium channel alpha-1B subunit/Amyloid beta A4 precursor protein-binding family A member 1; assay type: protein assay; remark: listed apart in the source
Paired box protein Pax-8 = Paired box protein Pax-8 (Homo sapiens, UniProt Q06710); experiment: inhibitors of PAX8-driven TPO luciferase reporter, dose response, RMG-I cells, cherry-pick (AID 687027); assay type: functional, cell-based;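 note: luciferase reporter driven by Pax8 target thyroperoxidase promoter measured by SteadyGlo luminescence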
[3] = biological target: T3, Replicative DNA helicase DnaB (Mycobacterium tuberculosis, UniProt P9WMR3); experiment: DnaB intein splicing inhibitors, dose response, biochemical, cell-free fluorescence (AID 449749); assay type: functional
T3 sequence (P9WMR3 whole entry): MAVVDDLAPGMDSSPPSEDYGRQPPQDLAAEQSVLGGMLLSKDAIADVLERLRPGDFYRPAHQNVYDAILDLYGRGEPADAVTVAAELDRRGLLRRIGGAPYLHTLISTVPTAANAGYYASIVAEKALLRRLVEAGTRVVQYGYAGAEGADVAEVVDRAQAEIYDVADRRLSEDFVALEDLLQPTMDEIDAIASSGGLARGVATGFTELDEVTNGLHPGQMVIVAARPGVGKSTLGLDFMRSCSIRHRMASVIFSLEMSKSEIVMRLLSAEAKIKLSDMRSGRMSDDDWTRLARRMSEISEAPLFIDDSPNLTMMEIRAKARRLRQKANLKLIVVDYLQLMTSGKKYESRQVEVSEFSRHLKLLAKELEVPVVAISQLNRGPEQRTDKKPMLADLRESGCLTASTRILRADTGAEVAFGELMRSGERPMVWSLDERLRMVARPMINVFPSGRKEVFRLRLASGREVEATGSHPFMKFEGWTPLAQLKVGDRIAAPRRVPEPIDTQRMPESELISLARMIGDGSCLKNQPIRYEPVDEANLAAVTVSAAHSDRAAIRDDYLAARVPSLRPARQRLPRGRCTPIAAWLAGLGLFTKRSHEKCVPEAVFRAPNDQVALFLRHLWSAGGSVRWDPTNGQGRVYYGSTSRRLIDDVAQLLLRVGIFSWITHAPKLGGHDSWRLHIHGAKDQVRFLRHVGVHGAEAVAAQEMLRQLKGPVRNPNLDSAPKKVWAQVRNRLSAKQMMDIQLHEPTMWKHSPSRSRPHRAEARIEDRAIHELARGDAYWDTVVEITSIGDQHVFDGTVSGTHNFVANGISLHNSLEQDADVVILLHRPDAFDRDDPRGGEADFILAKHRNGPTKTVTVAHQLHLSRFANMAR

[4] = inhibitors of CMV-promoter luciferase reporter, dose response, counter-screen for Pax8 inhibitor project, cell-based, HEK293, luminescence, dry powder (AID 743020); assay type: functional
[5] = non-specific cell cytotoxicity, dose response, cytotoxicity control for PAX8 inhibitor project, plate reader, dry powder samples (AID 743021); assay type: functional, cell-based
Hexokinase HKDC1 = biological target: T4, Hexokinase HKDC1 (Homo sapiens, UniProt Q2TB90); experiment: HKDC1 hexokinase activators, dose response, biochemical, W721R variant (AID 504730); assay type: functional
T4 sequence (Q2TB90 whole entry): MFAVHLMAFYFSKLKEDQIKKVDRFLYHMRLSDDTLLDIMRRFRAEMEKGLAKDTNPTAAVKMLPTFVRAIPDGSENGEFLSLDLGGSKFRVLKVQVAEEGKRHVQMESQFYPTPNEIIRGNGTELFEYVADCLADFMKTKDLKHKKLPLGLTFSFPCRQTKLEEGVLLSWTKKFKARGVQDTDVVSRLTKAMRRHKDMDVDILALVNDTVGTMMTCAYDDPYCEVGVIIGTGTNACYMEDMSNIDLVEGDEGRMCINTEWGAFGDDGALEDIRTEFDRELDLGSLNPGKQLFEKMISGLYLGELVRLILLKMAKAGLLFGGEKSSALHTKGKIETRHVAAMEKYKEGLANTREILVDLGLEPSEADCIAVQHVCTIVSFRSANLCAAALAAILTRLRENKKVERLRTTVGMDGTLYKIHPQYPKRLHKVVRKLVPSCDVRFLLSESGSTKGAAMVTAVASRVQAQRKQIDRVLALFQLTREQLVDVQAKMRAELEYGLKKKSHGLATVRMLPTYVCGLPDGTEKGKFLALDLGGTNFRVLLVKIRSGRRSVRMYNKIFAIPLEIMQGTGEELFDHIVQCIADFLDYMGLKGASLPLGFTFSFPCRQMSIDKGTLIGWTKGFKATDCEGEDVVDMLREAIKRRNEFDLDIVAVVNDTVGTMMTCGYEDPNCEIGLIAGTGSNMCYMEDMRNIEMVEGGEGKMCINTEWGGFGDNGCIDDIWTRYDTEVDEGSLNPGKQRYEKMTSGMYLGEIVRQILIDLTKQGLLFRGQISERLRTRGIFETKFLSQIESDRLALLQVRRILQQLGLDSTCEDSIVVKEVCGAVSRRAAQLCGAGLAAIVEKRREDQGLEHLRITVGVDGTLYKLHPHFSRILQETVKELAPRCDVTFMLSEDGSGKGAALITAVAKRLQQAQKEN

Hexokinase-1 = biological target: T5, Hexokinase-1 (Homo sapiens, UniProt P19367); experiment: hexokinase 1 activators, dose response, selectivity assay for HKDC1 activator project, biochemical (AID 504762); assay type: functional
T5 sequence (P19367 whole entry): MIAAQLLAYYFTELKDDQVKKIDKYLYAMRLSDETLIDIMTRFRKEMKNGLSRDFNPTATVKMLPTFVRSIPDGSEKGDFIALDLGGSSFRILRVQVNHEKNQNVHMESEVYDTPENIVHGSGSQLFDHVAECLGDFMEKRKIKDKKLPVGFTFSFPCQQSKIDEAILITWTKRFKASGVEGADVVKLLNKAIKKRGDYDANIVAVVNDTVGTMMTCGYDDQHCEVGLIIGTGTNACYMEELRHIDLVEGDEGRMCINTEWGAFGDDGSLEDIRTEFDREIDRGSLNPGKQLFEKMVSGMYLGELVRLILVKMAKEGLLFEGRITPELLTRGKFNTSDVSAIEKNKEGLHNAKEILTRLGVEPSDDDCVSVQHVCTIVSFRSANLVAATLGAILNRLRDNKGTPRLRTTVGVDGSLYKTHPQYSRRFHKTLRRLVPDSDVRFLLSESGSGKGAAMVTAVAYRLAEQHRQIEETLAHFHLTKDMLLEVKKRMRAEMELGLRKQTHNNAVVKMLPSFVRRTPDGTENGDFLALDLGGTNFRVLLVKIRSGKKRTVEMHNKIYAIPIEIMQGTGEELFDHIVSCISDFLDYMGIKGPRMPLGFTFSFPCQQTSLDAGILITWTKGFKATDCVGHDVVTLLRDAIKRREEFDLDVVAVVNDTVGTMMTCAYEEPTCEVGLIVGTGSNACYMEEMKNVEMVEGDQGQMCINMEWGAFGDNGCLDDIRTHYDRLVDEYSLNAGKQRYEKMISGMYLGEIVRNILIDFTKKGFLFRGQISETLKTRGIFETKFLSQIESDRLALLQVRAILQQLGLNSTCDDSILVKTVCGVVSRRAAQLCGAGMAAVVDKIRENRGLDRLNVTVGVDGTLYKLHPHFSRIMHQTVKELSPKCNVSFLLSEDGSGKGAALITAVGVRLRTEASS

[6] = enhancers of respiration in Yfh1-depleted yeast, dose response, Friedreich's ataxia, plus single-dose screen (AID 1465); assay type: functional;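 note: yeast depleted of Yfh1p frataxin homolog grown on glycerol needing respiration; WST-1 tetrazolium dye reduction as measure of cellular dehydrogenase metabolic activity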
Ion channel NompC = Ion channel NompC (Danio rerio, UniProt Q7T1G6); experiment: Dose response cell-based high-throughput screening assay for agonists of the transient receptor potential channel N1 (TRPN1). [Related pubchem assays (depositor defined):AID1424, AID1448]; assay type: functional
[7] = biological target: Peroxisome proliferator-activated receptor gamma/Nuclear receptor coactivator 1 (Homo sapiens, UniProt P37231); assay type: functional;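 note: agonist potency as compounds enhance coactivator SRC-1 recruitment to PPARgamma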
Sequence of Peroxisome proliferator-activated receptor gamma/Nuclear receptor coactivator 1 (P37231 whole entry): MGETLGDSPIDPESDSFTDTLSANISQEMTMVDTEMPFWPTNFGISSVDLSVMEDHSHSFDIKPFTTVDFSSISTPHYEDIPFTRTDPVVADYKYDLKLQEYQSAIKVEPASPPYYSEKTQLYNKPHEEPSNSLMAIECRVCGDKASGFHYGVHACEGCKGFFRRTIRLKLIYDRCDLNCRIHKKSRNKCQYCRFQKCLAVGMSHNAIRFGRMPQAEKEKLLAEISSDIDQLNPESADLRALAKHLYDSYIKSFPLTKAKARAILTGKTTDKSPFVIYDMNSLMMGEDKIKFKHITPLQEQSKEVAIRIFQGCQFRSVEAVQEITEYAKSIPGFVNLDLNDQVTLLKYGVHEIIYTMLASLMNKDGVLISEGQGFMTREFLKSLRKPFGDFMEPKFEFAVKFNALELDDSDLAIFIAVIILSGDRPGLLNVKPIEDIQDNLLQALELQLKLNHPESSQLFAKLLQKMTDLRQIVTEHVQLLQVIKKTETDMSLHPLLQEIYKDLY
Sequence of Peroxisome proliferator-activated receptor gamma/Nuclear receptor coactivator 1 (Q15788 whole entry, further chain): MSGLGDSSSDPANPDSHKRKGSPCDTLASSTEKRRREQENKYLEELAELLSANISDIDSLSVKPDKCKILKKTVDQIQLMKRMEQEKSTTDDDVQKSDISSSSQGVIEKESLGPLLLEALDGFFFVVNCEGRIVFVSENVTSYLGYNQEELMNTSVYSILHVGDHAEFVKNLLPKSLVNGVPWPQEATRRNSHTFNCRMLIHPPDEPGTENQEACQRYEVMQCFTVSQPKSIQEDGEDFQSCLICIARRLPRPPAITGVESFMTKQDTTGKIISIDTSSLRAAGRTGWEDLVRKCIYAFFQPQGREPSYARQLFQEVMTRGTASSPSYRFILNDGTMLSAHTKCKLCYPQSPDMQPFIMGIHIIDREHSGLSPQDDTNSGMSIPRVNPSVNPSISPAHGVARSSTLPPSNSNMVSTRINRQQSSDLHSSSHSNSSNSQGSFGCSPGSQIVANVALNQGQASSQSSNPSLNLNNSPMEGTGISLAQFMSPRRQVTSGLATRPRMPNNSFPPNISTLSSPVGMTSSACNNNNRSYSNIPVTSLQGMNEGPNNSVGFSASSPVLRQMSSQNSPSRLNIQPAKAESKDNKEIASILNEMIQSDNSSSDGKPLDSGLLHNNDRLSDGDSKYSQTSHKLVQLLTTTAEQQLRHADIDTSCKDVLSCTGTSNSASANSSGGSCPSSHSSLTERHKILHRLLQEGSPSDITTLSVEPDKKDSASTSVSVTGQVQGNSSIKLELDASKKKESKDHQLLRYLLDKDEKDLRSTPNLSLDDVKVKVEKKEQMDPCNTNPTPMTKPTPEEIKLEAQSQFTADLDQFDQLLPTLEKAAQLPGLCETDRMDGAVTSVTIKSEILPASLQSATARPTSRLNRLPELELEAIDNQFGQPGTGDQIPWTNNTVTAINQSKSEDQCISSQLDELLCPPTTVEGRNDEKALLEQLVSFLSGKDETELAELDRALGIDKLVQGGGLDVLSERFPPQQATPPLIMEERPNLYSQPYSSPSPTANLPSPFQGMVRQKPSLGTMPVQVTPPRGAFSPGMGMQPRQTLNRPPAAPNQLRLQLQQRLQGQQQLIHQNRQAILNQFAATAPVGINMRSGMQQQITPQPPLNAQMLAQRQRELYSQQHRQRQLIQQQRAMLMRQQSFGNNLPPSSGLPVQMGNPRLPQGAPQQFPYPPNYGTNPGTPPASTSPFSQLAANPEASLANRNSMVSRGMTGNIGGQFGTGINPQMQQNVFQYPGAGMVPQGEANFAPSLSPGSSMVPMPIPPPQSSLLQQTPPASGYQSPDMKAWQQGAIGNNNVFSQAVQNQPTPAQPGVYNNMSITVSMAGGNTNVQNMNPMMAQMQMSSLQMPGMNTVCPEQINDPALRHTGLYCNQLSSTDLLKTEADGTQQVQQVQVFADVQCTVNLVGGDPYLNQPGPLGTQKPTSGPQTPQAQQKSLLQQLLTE

[8] = biological target: Peroxisome proliferator-activated receptor gamma/Nuclear receptor coactivator 2 (Homo sapiens, UniProt P37231); assay type: functional;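 note: agonist potency for raising coactivator recruitment to the receptor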
Mucolipin-3 = biological target: T6, Mucolipin-3 (Homo sapiens, UniProt Q8TDD5); experiment: Fluorescence counterscreen assay for […] agonists: dose response cell-based high-throughput screening assay to identify agonists of the transient receptor potential channel ML3 (TRPML3). [Related pubchem assays: 1424, 1448 ]; assay type: functional
T6 sequence (Q8TDD5 whole entry): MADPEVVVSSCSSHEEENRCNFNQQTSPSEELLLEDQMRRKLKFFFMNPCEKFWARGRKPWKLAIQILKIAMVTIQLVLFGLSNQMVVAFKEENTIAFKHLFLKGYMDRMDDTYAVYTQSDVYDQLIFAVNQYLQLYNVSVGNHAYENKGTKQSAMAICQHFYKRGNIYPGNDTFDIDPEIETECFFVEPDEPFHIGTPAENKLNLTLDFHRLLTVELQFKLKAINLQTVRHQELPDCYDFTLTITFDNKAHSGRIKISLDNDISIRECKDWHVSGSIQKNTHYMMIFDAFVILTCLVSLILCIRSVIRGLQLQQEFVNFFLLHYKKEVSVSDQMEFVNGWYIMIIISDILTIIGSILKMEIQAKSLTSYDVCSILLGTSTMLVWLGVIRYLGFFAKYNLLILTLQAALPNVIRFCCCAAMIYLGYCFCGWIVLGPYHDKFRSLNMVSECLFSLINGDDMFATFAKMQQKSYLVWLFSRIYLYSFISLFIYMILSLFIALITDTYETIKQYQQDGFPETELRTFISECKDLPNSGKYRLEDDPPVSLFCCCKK

[9] = biological target: T7, Calpain-2 catalytic subunit (Sus scrofa, UniProt P43367); experiment: pig calpain II inhibitor potency, dose response, biochemical, fluorogenic peptide substrate (AID 1420); assay type: functional
T7 sequence (P43367 whole entry): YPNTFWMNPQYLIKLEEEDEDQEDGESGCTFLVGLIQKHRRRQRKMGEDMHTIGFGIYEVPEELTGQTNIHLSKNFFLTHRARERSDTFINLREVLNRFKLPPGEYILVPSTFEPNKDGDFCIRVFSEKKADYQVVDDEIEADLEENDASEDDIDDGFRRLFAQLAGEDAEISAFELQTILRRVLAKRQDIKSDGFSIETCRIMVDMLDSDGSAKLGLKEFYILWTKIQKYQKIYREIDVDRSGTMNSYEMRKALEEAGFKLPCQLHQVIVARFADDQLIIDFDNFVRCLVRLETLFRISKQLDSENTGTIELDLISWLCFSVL

[10] = biological target: Peroxisome proliferator-activated receptor gamma/Nuclear receptor coactivator 3 (Homo sapiens, UniProt P37231); assay type: functional;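 note: agonist potency for raising coactivator recruitment to the receptor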
Leucine aminopeptidase = biological target: T8, Leucine aminopeptidase (Plasmodium falciparum 3D7, UniProt Q8IL11); experiment: P. falciparum M17LAP inhibitors, primary screen, biochemical, fluorogenic H-Leu-NHMec substrate, 1536-well (AID 1619); assay type: functional
T8 sequence (Q8IL11 whole entry): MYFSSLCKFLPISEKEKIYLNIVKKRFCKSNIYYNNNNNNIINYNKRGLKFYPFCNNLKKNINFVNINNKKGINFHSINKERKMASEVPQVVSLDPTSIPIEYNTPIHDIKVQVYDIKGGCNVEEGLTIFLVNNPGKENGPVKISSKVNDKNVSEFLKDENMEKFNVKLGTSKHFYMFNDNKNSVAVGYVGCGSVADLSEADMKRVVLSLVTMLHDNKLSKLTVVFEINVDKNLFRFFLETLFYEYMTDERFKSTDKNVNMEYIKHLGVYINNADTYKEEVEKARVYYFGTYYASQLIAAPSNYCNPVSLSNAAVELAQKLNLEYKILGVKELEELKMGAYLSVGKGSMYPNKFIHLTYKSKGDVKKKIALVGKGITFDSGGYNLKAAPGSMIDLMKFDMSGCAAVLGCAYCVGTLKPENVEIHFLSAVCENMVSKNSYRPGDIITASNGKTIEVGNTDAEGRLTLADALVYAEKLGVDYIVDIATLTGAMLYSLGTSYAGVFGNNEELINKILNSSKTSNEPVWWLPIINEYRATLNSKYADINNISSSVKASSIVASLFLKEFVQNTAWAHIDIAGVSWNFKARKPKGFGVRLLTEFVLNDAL

T1 sequence (Q00975 whole entry): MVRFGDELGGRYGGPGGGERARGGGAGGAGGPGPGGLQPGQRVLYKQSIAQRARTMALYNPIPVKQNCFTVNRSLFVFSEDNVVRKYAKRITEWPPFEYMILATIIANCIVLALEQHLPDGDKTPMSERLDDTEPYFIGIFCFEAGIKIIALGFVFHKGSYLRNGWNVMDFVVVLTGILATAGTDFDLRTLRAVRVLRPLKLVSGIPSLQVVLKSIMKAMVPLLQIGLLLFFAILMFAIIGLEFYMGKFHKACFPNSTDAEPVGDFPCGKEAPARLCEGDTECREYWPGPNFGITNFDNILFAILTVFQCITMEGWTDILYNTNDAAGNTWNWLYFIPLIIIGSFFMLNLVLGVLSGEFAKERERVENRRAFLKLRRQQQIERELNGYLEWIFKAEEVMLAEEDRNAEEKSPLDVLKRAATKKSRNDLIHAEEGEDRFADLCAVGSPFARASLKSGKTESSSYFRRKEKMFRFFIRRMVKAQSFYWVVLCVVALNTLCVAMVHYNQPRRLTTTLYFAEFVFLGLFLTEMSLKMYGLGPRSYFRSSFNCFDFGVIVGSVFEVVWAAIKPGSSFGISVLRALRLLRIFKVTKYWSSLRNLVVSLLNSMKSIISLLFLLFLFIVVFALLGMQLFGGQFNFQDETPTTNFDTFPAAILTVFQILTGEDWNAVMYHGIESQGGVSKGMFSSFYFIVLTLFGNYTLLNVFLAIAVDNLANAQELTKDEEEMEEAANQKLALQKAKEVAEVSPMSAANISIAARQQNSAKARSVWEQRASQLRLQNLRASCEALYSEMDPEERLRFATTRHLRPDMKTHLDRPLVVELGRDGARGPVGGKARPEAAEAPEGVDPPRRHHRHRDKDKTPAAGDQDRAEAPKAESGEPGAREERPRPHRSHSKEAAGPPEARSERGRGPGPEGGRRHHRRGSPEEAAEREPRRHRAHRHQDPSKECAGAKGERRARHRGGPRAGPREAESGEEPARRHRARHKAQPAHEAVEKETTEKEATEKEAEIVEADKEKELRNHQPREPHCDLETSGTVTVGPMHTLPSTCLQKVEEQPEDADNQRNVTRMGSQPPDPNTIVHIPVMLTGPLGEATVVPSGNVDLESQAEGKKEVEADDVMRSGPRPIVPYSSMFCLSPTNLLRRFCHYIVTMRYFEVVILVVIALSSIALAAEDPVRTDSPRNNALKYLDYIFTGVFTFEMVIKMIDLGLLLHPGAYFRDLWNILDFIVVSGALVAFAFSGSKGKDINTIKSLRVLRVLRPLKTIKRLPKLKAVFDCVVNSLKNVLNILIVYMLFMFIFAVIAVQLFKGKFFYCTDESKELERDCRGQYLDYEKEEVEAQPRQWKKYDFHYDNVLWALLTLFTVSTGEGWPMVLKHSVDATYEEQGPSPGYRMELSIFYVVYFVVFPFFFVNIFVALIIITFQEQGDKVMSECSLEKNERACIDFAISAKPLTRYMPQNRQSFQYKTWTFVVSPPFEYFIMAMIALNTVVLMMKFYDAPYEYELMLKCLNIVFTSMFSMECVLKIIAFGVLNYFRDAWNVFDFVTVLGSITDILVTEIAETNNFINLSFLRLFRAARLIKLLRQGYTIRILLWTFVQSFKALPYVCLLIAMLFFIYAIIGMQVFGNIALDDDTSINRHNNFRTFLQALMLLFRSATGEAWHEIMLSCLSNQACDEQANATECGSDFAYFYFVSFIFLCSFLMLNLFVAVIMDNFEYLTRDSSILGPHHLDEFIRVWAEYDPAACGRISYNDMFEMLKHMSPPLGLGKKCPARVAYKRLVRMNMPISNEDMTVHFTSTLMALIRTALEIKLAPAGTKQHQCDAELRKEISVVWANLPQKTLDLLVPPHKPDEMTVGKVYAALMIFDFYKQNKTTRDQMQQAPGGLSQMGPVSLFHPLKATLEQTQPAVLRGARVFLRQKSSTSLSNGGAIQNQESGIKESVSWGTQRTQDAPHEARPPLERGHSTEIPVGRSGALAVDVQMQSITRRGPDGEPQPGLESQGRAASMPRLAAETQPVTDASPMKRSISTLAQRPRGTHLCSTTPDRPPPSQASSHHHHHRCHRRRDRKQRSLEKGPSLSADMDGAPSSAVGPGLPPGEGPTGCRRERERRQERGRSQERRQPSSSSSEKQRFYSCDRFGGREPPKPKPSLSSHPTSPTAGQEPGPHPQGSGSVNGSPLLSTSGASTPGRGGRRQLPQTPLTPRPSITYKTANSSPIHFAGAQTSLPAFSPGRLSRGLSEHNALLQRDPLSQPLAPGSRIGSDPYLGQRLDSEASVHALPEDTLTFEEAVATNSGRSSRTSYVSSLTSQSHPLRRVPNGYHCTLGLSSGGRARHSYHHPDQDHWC
T1 sequence (Q02410 whole entry): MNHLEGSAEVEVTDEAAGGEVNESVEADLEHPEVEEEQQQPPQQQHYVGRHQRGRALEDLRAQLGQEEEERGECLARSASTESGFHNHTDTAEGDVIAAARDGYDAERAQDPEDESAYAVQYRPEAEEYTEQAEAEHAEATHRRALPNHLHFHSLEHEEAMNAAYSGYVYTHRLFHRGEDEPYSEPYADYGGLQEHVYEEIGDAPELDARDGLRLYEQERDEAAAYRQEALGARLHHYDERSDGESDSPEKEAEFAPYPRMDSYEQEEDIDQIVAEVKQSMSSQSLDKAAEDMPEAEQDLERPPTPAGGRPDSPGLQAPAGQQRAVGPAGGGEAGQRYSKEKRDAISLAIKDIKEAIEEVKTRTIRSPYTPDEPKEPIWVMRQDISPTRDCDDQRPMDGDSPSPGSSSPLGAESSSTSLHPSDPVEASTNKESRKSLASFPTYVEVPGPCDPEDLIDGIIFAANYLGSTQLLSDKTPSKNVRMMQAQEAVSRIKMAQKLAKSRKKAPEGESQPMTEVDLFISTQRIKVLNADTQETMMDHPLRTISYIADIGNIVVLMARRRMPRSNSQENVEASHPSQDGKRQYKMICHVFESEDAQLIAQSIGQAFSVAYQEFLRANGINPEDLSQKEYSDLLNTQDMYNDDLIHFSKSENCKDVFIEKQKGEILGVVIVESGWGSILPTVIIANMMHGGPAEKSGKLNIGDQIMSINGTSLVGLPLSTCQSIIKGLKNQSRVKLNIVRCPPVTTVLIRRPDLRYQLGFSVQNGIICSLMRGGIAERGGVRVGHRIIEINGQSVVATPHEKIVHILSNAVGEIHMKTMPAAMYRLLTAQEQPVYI

SMILES: N#Cc1nccnc1S(=O)(=O)c1cccs1
- IC50 [1]: 22.7 µM (active)
- EC50 (Protein RecA): 6.36 µM (active)
- IC50 [2]: 1.13 µM (active)
- AC50 (Paired box protein Pax-8): 4.59 µM (active)
- AC50 [3]: 8.49 µM (active)
- AC50 [4]: 23 µM (active)
- AC50 [5]: 13.5 µM (active)

SMILES: Cc1ccc(/N=C2\C(=S)N(c3ccc(C)cc3)C(=N)N2/N=C/c2ccc(Cl)cc2)cc1
- EC50 (Hexokinase HKDC1): > 80 µM (inactive)
- EC50 (Hexokinase-1): > 80 µM (inactive)

SMILES: CN1CCS/C1=C\C=C1/SC(=S)N(CC(=O)O)C1=O
- EC50 [6]: > 100 µM (active)
- EC50 (Ion channel NompC): 5.26 µM (active)
- EC50 [7]: 89.8 µM (not active)
- EC50 [8]: 62.2 µM (not active)
- EC50 (Mucolipin-3): 7.93 µM (active)
- IC50 [9]: 7.69 µM (not active)
- EC50 [10]: > 79.4 µM (not active)
- IC50 (Leucine aminopeptidase): 52.3 µM (active)
